The subject of data set [1] is reconstructed human skin EpiDerm™ EPI-200. The format is in vitro ADME. On the procedure:
Lidocaine permeability was measured in vitro through reconstructed human skin EpiDerm™ EPI-200 and dorsal pig ear skin using selected formulations of examples 1 through 3. The model skin was placed in a commercial MATTEK™ Permeation Device (MPD). A test formulation (0.4 mL) was applied in the donor compartment. The receptor compartment was filled with 5 mL of PBS (0.01M phosphate, 0.137M NaCl, pH 7.4). At predetermined time, the receiver solution was withdrawn completely from the receptor compartment and was immediately replaced by fresh buffer solution. Sink conditions were maintained at all times. At 5.5 h, the experiment was terminated. All permeation experiments were conducted in triplicate at room temperature.
Lidocaine in receiver solutions was assayed by a UV spectrophotometer ([…] PLUS™, Amersham Pharmacia Biotech, U.S.A.). Receiver solutions were diluted with methanol and the absorbance at 230 nm were measured. A linear calibration curve for lidocaine was obtained at 230 nm in a range of 0-100 μg/mL with a linearity of 0.999.
The cumulative lidocaine amount permeated across the skin was plotted as a function of time (h), and average steady-state flux (J, μg/h/cm2) was calculated by dividing the slope from the linear part of the curve by the area of the exposed skin surface (0.256 cm2). […]

The test system of a further data set is dorsal pig ear skin. The format is in vitro ADME. On the procedure: The model skin was placed in a commercial MATTEK™ Permeation Device (MPD). A test formulation (0.4 mL) was applied in the donor compartment. […] At predetermined time, the receiver solution was withdrawn completely from the receptor compartment and was immediately replaced by fresh buffer solution. Sink conditions were maintained at all times. At 5.5 h, the experiment was terminated. All permeation experiments were conducted in triplicate at room temperature.
Receiver solutions were diluted with methanol and the absorbance at 230 nm were measured.
The cumulative lidocaine amount permeated across the skin was plotted as a function of time (h), and average steady-state flux (J, μg/h/cm2) was calculated by dividing the slope from the linear part of the curve by the area of the exposed skin surface (0.256 cm2).
To measure the concentration of lidocaine in pig ear skin, the tissue was removed from the MATTEK™ permeation device, rinse with PBS solution and blotted with lint-free paper tissue to remove any excess of fluid. The tissue was immersed in 2 mL of methanol for a period of 24 hr. After that time, the concentration of lidocaine was measured using the HPLC method described above. The mass of lidocaine extracted is divided by the volume of the tissue (tissue thickness*cross sectional area) to obtain the equivalent lidocaine concentration in the skin. The skin permeability is calculated by dividing the transdermal flux by the lidocaine skin concentration.
The formulation LO-32 (a Type II lecithin linker microemulsion) was reformulated using lower lecithin concentration. The transdermal flux through pig ear dorsal skin was also evaluated for selected formulations, and following the procedures described above. […] (Where: (a) is lecithin; (b) is sorbitan monooleate; (c) is octanoic acid; (d) is sodium octanoate; (e) is water; (f) is lidocaine; (g) is isopropyl myristate; and (v) is microemulsion volume. Concentrations are expressed on a weight percentage basis (w/w).)

On to Pentanol, for which the “MatTek Flux (lidocaine steady-state transdermal flux)” value in data set [1] is on record as 160 +/− 10 μg/hr-cm^2. In the data set on dorsal pig ear skin, the “Pig ear skin Flux (lidocaine steady-state transdermal flux)” value is reported as 130 +/− 20 μg/hr-cm^2, the “Pig ear skin Lidocaine in skin” value worked out at 5800 ± 200 µg/mL and the Pig skin permeability is recorded as 220 +/− 20 μm/hr.
With Water, the “MatTek Flux (lidocaine steady-state transdermal flux)” value in data set [1] was 320 +/− 20 μg/hr-cm^2. In the data set on dorsal pig ear skin, the “Flux (lidocaine transdermal flux through excised pig ear skin)” value was 70 +/− 10 μg/cm^2, the “Pig ear skin Flux (lidocaine steady-state transdermal flux)” value is given as 110 +/− 10 μg/hr-cm^2, the “Pig ear skin Lidocaine in skin” value turned out to be 6800 ± 400 µg/mL and the Pig skin permeability was 160 +/− 20 μm/hr.
